Results reported in patent publication US12263155B2, “Combinations of monoamine oxidase inhibitors and serotonin receptor agonists and their therapeutic use” (Remedi, Inc., priority 2022, dated 2025).

Experiments:
[1] = target: T1, rat brain MAO-B (Rattus norvegicus, UniProt P19643); experiment: In vitro inhibition of rat brain MAO-B; format: biochemical; settings: 10 μM [14C]-PEA, all concentrations tested
T1 construct: from tissue; host or cells: rat brain
T1 sequence (P19643 1-520): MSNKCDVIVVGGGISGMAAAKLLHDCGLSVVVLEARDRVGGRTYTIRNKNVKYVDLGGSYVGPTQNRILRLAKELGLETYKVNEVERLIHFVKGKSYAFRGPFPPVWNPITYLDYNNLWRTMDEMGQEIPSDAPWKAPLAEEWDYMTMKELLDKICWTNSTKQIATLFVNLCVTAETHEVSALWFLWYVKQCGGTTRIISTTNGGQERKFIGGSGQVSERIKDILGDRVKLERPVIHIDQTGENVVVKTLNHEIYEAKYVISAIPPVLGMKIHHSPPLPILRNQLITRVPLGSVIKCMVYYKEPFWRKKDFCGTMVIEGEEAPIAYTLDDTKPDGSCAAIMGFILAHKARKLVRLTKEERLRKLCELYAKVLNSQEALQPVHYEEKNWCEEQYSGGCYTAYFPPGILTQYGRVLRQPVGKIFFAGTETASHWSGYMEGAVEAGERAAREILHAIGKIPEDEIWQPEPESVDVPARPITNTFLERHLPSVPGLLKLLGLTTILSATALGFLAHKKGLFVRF
Procedure: (§1) Methods: The soluble extract of the mitochondrial enriched fraction (P2 pellet), which was prepared from brain homogenates of male Sprague-Dawley rats, served as the source of MAO-A enzymatic activity. The P2 fraction was prepared and was stored frozen until being thawed for use on the day of assay. Final concentrations of 50 μM [^14C]-serotonin (5-HT) and 10 μM [^14C]-phenylethylamine (PEA) were employed as specific substrates for MAO-A and MAO-B, respectively. Test compound inhibition was based on competition for oxidation of these radio-labeled substrates. MAO-A assay specificity was enhanced by inclusion of 0.1 μM deprenyl to prevent substrate oxidation by MAO-B. Likewise, MAO-B assays included 0.1 μM clorgyline to block MAO-A activity. […] Inhibition of enzymatic activities was expressed as IC50 and as the Ki, which was calculated using the Cheng-Prusoff equation.

[2] = target: T2, rat liver MAO-B (Rattus norvegicus, UniProt P19643); experiment: In vitro inhibition of rat liver MAO-B; format: biochemical; settings: 10 μM [14C]-PEA
T2 construct: from tissue; host or cells: rat liver
T2 sequence (P19643 1-520): T1 sequence (P19643 1-520)
Procedure: as §1

[3] = target: T3, MAO-A from human brain striatum (Homo sapiens, UniProt P21397); experiment: Inhibitory kinetics of human brain striatum MAO-A; format: biochemical; settings: for Vmax: [14C]-5-HT substrate
T3 construct: homogenates of a post-mortem sample of the human brain striatum, served as the source of MAO-A enzymatic activity; from tissue; host or cells: human brain striatum, post-mortem (P2 mitochondrial-enriched fraction)
T3 sequence (P21397 1-527): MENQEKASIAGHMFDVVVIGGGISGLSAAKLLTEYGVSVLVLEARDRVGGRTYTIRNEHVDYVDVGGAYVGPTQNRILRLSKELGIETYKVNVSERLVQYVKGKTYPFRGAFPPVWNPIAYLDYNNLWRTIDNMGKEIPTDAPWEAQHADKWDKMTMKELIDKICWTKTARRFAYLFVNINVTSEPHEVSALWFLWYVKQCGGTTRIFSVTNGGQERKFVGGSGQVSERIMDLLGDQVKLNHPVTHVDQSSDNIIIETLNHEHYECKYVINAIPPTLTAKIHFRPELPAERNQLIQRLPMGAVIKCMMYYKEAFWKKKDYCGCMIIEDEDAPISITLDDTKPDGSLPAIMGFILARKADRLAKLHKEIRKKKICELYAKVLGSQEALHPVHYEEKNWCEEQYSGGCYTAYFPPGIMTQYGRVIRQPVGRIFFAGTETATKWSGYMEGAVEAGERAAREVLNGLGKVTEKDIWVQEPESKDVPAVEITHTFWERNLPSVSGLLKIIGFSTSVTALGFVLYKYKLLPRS
Procedure: Methods: The soluble extract of the mitochondrial enriched fraction (P2 pellet), which was prepared from homogenates of a post-mortem sample of the human brain striatum, served as the source of MAO-A enzymatic activity for this assay. After preparation, the P2 fraction was stored frozen until it was thawed for use on the day of assay. […] The MAO-A assay specificity was enhanced by inclusion of 0.1 μM deprenyl to prevent substrate oxidation by MAO-B. The CX157 competition for MAO-A activity was measured using either 1.0 nM or 5.0 nM CX157 against the 2 log unit concentration range of [^14C]-5-HT. The reference standard, RO 41-1049, was tested at 10 μM. Deprenyl (0.1 μM) was included in all MAO-A assays to prevent any potential for MAO-B mediated oxidation of the [^14C]-5-HT substrate. […] The MAO-A assays were performed using CX157 at concentrations of 0 nM (as a positive control), 1 nM and 5 nM. The Km and Vmax values were calculated from Lineweaver-Burke plots.

[4] = test system: 69 binding sites in nine classes; experiment: NovaScreen ligand-binding screen, other binding sites; settings: 10.0 nM and 100 nM
Procedure: Methods: Investigational drug candidates CX157 were analyzed in NovaScreen's bank of ligand-binding reactions to test for specificity. CX157 was screened at concentrations of both 10.0 nM and 100 nM as potential competitors in binding reactions involving nine classes containing 69 binding sites. The following binding reactions are tested: Adenosine Non-selective, Adrenergic Alpha 1 Non-selective, Adrenergic Alpha 2 Non-selective, Adrenergic Beta Non-selective, Dopamine Transporter, Dopamine Non-selective, GABA A Agonist Site, GABA A BDZ alpha 1 site, GABA B, Glutamate AMPA Site (Ionotropic), Glutamate Kainate Site (Ionotropic), Glutamate NMDA Agonist Site (Ionotropic), Glutamate NMDA Glycine (Stry-insens Site) (Ionotrophic), Glycine Strychnine-sensitive, Histamine H1, Histamine H2, Histamine H3, Melatonin Non-selective, Muscarinic M1 (hr), Muscarinic M2 (hr), Muscarinic Non-selective Central, Muscarinic Non-selective Peripheral, Nicotinic (α-BnTx insensitive) Neuronal, Norepinephrine Transporter, Opioid Non-selective, Orphanin (hr), Serotonin Transporter, Serotonin Non-selective, Sigma Non-selective, Estrogen, Testosterone (cytosolic), Calcium Channel Type L (Dihydropyridine Site), Calcium Channel Type N, Potassium Channel ATP-Sensitive, Potassium Channel Ca2+ Act. VI, Potassium Channel I[Kr]

[5] = target: T4, MAO-A (Homo sapiens, UniProt P21397); experiment: Phase I 14-day twice-daily pharmacodynamics; format: in vivo; parameters: administered for 14 days compared to placebo in healthy male and female volunteers; from tissue; host or cells: in vivo, healthy volunteers; settings: repeated administration 10, 20, 40 mg twice daily
T4 sequence (P21397 1-527): T3 sequence (P21397 1-527)
Procedure: Methods: The study was a Phase I, single-center, randomized, parallel-group, multiple-dose, placebo-controlled, pharmacodynamic, pharmacokinetic and safety study in healthy volunteers. To obtain 24 enrolled subjects, screening procedures and inclusion/exclusion criteria were evaluated for 54 subjects during a variable screening period of up to 28 days.

Structure (SMILES): O=S1(=O)c2ccc(F)cc2Oc2cc(OCC(F)(F)F)ccc21 [CX157, 3-fluoro-7(2,2,2-trifluorethoxy)phenoxathiine-10,10-dioxide]
- inhibition of rat brain MAO-B [1]: did not inhibit
- inhibition of rat liver MAO-B [2]: did not inhibit
- increase of Km of the enzyme for [14C]-5-HT ([3]; 5.0 nM CX157): 34.6%
- Vmax ([3]; 1 nM CX157): 50777
- Vmax ([3]; 5 nM CX157): 59161
- mode of MAO-A inhibition ([3]; human brain striatum): competitive inhibitor
- Ki ([3]; human brain striatum homogenate, from plot of Km values): 10 nM
- interactions with other binding sites in the screen [4]: no interactions
- pharmacodynamic activity: MAO-A activity [5]: inhibits MAO-A activity
